According to PubChem BioAssay (NCI):
“And” between values parts separate entries of the source, which are not always exact repeats. Equal entries are not always repeated.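 Where inhibition never reached the appropriate level, the endpoint shown equals the highest concentration tested. Otherwise, values were interpolated linearly from a five-concentration, 48-hour dose response in 96-well plates. GI50 = concentration required for 50% inhibition of growth. TGI is the concentration that stops growth completely.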

Key:
Test in all cases: NCI-60 cell line screen, 48 h
SW-620 colon = system: SW-620 colon
CAKI-1 renal = system: CAKI-1 renal
HOP-92 NSCLC = system: HOP-92 NSCLC
SK-MEL-5 melanoma = system: SK-MEL-5 melanoma
SN12C renal = system: SN12C renal
UACC-62 melanoma = system: UACC-62 melanoma
K-562 leukemia = system: K-562 leukemia
SF-539 CNS = system: SF-539 CNS
A498 renal = system: A498 renal
NCI/ADR-RES ovarian = system: NCI/ADR-RES ovarian

| SMILES | TGI (SW-620 colon) | TGI (CAKI-1 renal) | TGI (HOP-92 NSCLC) | TGI (SK-MEL-5 melanoma) | TGI (SN12C renal) | TGI (UACC-62 melanoma) | TGI (K-562 leukemia) | GI50 (SW-620 colon) | GI50 (CAKI-1 renal) | GI50 (SF-539 CNS) | TGI (SF-539 CNS) | GI50 (A498 renal) | TGI (A498 renal) | GI50 (SK-MEL-5 melanoma) | GI50 (SN12C renal) | GI50 (UACC-62 melanoma) | GI50 (K-562 leukemia) | TGI (NCI/ADR-RES ovarian) | GI50 (NCI/ADR-RES ovarian) | GI50 (HOP-92 NSCLC) |
| --- | --- | --- | --- | --- | --- | --- | --- | --- | --- | --- | --- | --- | --- | --- | --- | --- | --- | --- | --- | --- |
| CC(=O)Nc1c(Nc2ccccc2)[nH]c(C)nc1=S | > 100 µM | > 100 µM | > 100 µM | > 100 µM | > 100 µM | > 100 µM | > 100 µM |  |  |  |  |  |  |  |  |  |  |  |  |  |
| C[C@]12CC[C@H]3[C@@H](CC=C4C[C@@H](N5CCCC5)CC[C@@]43C)[C@@H]1C/C(=C\c1cccc(OCCN3CCOCC3)c1)[C@@H]2O | 18.8 µM | > 100 µM |  | 10.6 µM | > 100 µM | 33.2 µM | > 100 µM | 2.82 µM | 6.91 µM | 1.41 µM | 3.38 µM | 3.52 µM | 15 µM | 2.88 µM | 25.9 µM | 17.6 µM | 2.34 µM |  |  |  |
| COCN1COCN=C1NC#N | 66.8 µM | > 100 µM | > 100 µM | > 100 µM | > 100 µM | > 100 µM | > 100 µM |  |  |  | > 100 µM |  | > 100 µM |  |  |  |  |  |  |  |
| C[N+](C)(C)CC(=O)N/N=C(/C(=O)Nc1ccc(Br)cc1)C1C(=O)NC(=O)NC1=O | > 100 µM | > 100 µM |  | > 100 µM | > 100 µM | > 100 µM | > 100 µM |  |  |  | > 100 µM |  | > 100 µM |  |  |  |  |  |  |  |
| COC(=O)N/N=C(\C)c1c(O)cc(C)oc1=O | > 100 µM |  | > 100 µM | > 100 µM | > 100 µM | > 100 µM | 97.7 µM |  |  |  | 58 µM |  | > 100 µM |  |  |  |  |  |  |  |
| OC(COC(c1ccccc1)(c1ccccc1)c1ccccc1)C(O)CC1SCCS1 (stereo not given) | > 100 µM | 66.6 µM |  | 40.1 µM | 45.2 µM | 36 µM | > 100 µM |  |  |  | 43.8 µM |  | 28.4 µM |  |  |  |  | 52.9 µM |  |  |
| CCOC(=O)c1cc2c(cc1Cl)SC(=Nc1ccccc1)N(S(=O)(=O)c1ccc(Cl)cc1)S2(=O)=O | 32.6 µM | 33.7 µM |  | 21.6 µM | 33.2 µM | 23.7 µM | 38.7 µM | 14.6 µM | 15.7 µM | 18.3 µM | 34.8 µM | 11.4 µM | 24.6 µM | 9.5 µM | 15.4 µM | 10.2 µM | 15 µM | 36.5 µM | 18.3 µM |  |
| CC1=C(/C=C/C(C)=C/C2CC(N(C)C)=CC(=O)O2)C(C)(C)CCC1 (stereo not given) | 31.1 µM | 37.1 µM | 31.1 µM | 19.6 µM | 29.2 µM | 27 µM | 19.9 µM |  |  |  | 30.2 µM |  | 29.2 µM |  |  |  |  |  |  |  |
| O=C([CH-]C(=O)c1ccccc1)c1ccccc1.[CH-]1CCCCC1.[CH-]1CCCCC1.[CH-]1CCCCC1.[Sn+4] | 9.72 µM | 18.1 µM |  | 19.1 µM | 16.1 µM | 15.6 µM | 6.15 µM | 3 µM | 4.52 µM | 10.4 µM | 27 µM | 15.4 µM | 28.9 µM | 6.58 µM | 4.35 µM | 4.34 µM | 2.31 µM |  |  |  |
| CC(=O)c1c2c(cc3c1CC1(C3)Cc3cc4c(c(C(C)=O)c3C1)CCC4)CCC2 | > 100 µM | > 100 µM | > 100 µM | > 100 µM | > 100 µM | > 100 µM | > 100 µM |  |  |  | > 100 µM |  |  |  |  |  |  |  |  |  |
| CN(C)CCNC(=O)c1cccc2cc3c(Cl)cccc3nc12 | 6.17 µM | > 21.8 µM | 4.28 µM |  | 3.95 µM | 3.82 µM | 4.04 µM |  |  |  | 4.03 µM |  | 3.21 µM |  |  |  |  |  |  |  |
| CCCCCCCCCCCCCC[N+](C)(C)CCCCCCCCCCCCCC |  | 24.3 µM |  |  |  | 5.7 µM | 9.8 µM |  | 3.56 µM |  |  | 5.07 µM | 28 µM |  |  | 1.89 µM | 2.89 µM | 63.4 µM | 7.42 µM |  |
| COC12C=C/C(=C(/C(=O)OCc3ccccn3)C(=O)CCCCCCCCC3(OC)C=C/C(=C(/C(=O)OCc4ccccn4)C(=O)CCCCCCCC1)O3)O2 | 2.09 µM | 3.4 µM | 3.54 µM | 0.492 µM | 1.21 µM | 1.22 µM | > 100 µM | 0.385 µM | 0.481 µM | 0.557 µM | 3.2 µM | 1.06 µM | 2.29 µM | 0.221 µM | 0.356 µM | 0.348 µM | 0.331 µM |  |  | 1.65 µM |
| CC(=O)[O-].Cn1ccnc1CNCc1nccn1C.[Cu+2].[O-][Cl+3]([O-])([O-])[O-] | > 100 µM |  |  | > 100 µM | > 100 µM | > 100 µM | > 100 µM | > 100 µM |  | > 100 µM | > 100 µM |  |  | > 100 µM | > 100 µM | 26.9 µM | > 100 µM |  |  |  |
| CN(C)c1ccc2oc(=O)c3ccccc3c2c1 | > 100 µM | > 100 µM | > 100 µM | > 100 µM | > 100 µM | > 100 µM | > 100 µM |  |  |  | > 100 µM |  | > 100 µM |  |  |  |  |  |  |  |
| CC(C)(C)C1CCC2c3c([nH]c4ccccc34)C3C(=O)N(c4ccc(Cl)cc4)C(=O)C3C2C1 (stereo not given) | > 100 µM |  |  | > 100 µM | > 100 µM | > 100 µM | 46.1 µM and > 10 µM | 53.9 µM and > 10 µM |  | > 100 µM | > 100 µM |  | > 10 µM | > 100 µM | 37.4 µM and > 10 µM | > 100 µM | 21.1 µM and > 10 µM | > 100 µM | 51.3 µM and > 10 µM |  |
| Nc1nc([Se])c2ncn(C3OC(CO)C(O)C3O)c2n1 (stereo not given) | > 100 µM | > 100 µM |  | 89.6 µM | > 100 µM | > 100 µM | > 100 µM | 28.8 µM | 22.5 µM | 19.3 µM | > 100 µM | 17 µM | > 100 µM | 25.2 µM | 52.9 µM | 4.16 µM | 5.59 µM | > 100 µM | 5.57 µM |  |
| O=C(O)[C@H](NS(=O)(=O)c1ccc(F)cc1)c1ccccc1 | > 100 µM | > 100 µM |  | > 100 µM | > 100 µM | > 100 µM | > 100 µM |  |  |  | > 100 µM |  |  |  |  |  |  |  |  |  |
